Measurements as given in ChEMBL document CHEMBL1146508, “Cyclonellin, a new cyclic octapeptide from the marine sponge Axinella carteri” (J Nat Prod, 2004).
Active and inactive are the calls of the source. The rule behind the calls is not given here. Peptide text beside a SMILES is read from it.

Legend:
COLO 205 = experiment: Cytotoxicity against human COLO205 cells at 50 ug/mL; format: functional, cell-based
OVCAR-3 = experiment: Cytotoxicity against human OVCAR-3 cells at 50 ug/mL; format: functional, cell-based

Question: `C[C@@H]1NC(=O)[C@H]([C@@H](C)O)NC(=O)[C@H](Cc2ccc(O)cc2)NC(=O)[C@@H]2CCCN2C(=O)[C@H](Cc2ccc(O)cc2)NC(=O)[C@H](CCCNC(=N)N)NC(=O)[C@@H]2CCCN2C(=O)[C@H](CC(N)=O)NC1=O` (cyclo(ANPRYPYT)) was tested. Which Activity (COLO 205) did it give?
Answer: The Activity was “inactive”.

Question: What about the Activity (OVCAR-3) of the same compound?
Answer: Its Activity is “inactive”.
